Data taken from patent US4446325A, “1,4-Dihydropyridine compounds” (priority 1981, dated 1984).
Each block holds one molecule with its values, some of them ahead of it.

What was measured:
[1] = tested on: enucleated heart of guinea-pig; assay: Effect on heart systole, enucleated heart of guinea-pig (Langendorf method)
Protocol: (§1) The effects of the compounds of this invention on the heat systole and the perfusion volume in the coronary artery in enucleated heart of guinea-pig were determined in accordance with the Langendorf method.

[2] = background statement; cited from earlier work
[3] = tested on: coronary artery in enucleated heart of guinea-pig; assay: Effect on perfusion volume in coronary artery, enucleated heart of guinea-pig (Langendorf method)
Protocol: as §1

femoral artery = assay: Blood flow increasing activity in femoral artery of anesthetized dog (intravenous); format: in vivo; conditions: i.v.
Protocol: (§2) A dog was anesthetized with pentobarital sodium at a dose of 30 mg/kg (intravenous injection) and, under artificial respiration, the blood flow in the coronary, vertebral and femoral arteries was determined using an electromagnetic blood-flow meter. The blood pressure was also measured simultaneously. The test compound was dissolved in ethanol at a concentration of 1% by weight of the compound and then diluted to a volume of 10 times with a 80% aqueous solution of polyethylene glycol 400. The resulting solution was further diluted with a 0.9% physiological saline solution and administered intravenously into the femoral vein at a dose shown in Tables 1 and 2.

coronary artery = assay: Blood flow increasing activity in coronary artery of anesthetized dog (intravenous); format: in vivo; conditions: i.v.
Protocol: as §2

[4] = cited from earlier work
blood pressure = assay: Blood pressure measured simultaneously with blood flow in anesthetized dog; format: in vivo; conditions: i.v.
Protocol: as §2

vertebral artery = assay: Blood flow increasing activity in vertebral artery of anesthetized dog (intravenous); format: in vivo; conditions: i.v.
Protocol: as §2

in vivo = conditions: mouse, oral, ddy male mice, mortality one week after administration
[5] = tested on: coronary, vertebral and femoral arteries; assay: Blood flow increasing / vasodilating activity in coronary, vertebral and femoral arteries (overall statements); format: in vivo, dog; conditions: Table 2
Protocol: as §2

[6] = Stability to light (sun light, quartz dish, visual appearance); format: physicochemical; design: key to Change in appearance on light exposure: (-): No change
[7] = 3 mg/kg, Table 2 (separate test)
[8] = exposure for a total of 8 hours

SMILES: COC(=O)C1=C(C)NC(C)=C(C(=O)OC)C1c1ccccc1[N+](=O)[O-] [Compound H, Dimethyl 2,6-dimethyl-4-(2-nitrophenyl)-1,4-dihydropyridine-3,5-dicarboxylate, reference compound]
Effects on Heart Systole: Duration of Effect ([1]; dose 1 × 10^-6 g): 14.5 min
Effects on Heart Systole: Duration of Effect ([1]; dose 1 × 10^-7 g): 2.9 min
side-effects [2]: still unsatisfactory
Effects on Coronary Artery: Duration of Effect ([3]; dose 1 × 10^-6 g): 21.3 min
Effects on Coronary Artery: Total Perfusion Volume ([3]; dose 1 × 10^-6 g): 192.8 drops
Effects on Coronary Artery: Duration of Effect ([3]; dose 1 × 10^-7 g): 17.2 min
Effects on Coronary Artery: Total Perfusion Volume ([3]; dose 1 × 10^-7 g): 91.2 drops
Duration of Activity, Femoral Artery (femoral artery; 1 mg/kg, Table 1): 6.0
Total Increase in Blood Flow, Femoral Artery (femoral artery; 1 mg/kg, Table 1): 34 mL
Duration of Activity, Femoral Artery (femoral artery; 3 mg/kg, Table 1): 21.5
Total Increase in Blood Flow, Femoral Artery (femoral artery; 3 mg/kg, Table 1): 618 mL
Duration of Activity, Femoral Artery (femoral artery; [7]): 12
Total Increase in Blood Flow, Femoral Artery (femoral artery; [7]): 119 mL
Duration of Activity, Femoral Artery (femoral artery; 10 mg/kg, Table 2): 54
Total Increase in Blood Flow, Femoral Artery (femoral artery; 10 mg/kg, Table 2): 825 mL
Duration of Activity, Coronary Artery (coronary artery; 1 mg/kg, Table 1): 3.9
Total Increase in Blood Flow, Coronary Artery (coronary artery; 1 mg/kg, Table 1): 30 mL
Duration of Activity, Coronary Artery (coronary artery; 3 mg/kg, Table 1): 9.3
Total Increase in Blood Flow, Coronary Artery (coronary artery; 3 mg/kg, Table 1): 107 mL
Duration of Activity, Coronary Artery (coronary artery; [7]): 11
Total Increase in Blood Flow, Coronary Artery (coronary artery; [7]): 146 mL
Duration of Activity, Coronary Artery (coronary artery; 10 mg/kg, Table 2): 40
Total Increase in Blood Flow, Coronary Artery (coronary artery; 10 mg/kg, Table 2): 536 mL
duration of vasodilating activity ([4]; background statement): still unsatisfactory
blood pressure lowering activity (blood pressure): found to have a blood pressure lowering activity
Duration of Activity, Vertebral Artery (vertebral artery; 1 mg/kg, Table 1): 8.0
Total Increase in Blood Flow, Vertebral Artery (vertebral artery; 1 mg/kg, Table 1): 66 mL
Duration of Activity, Vertebral Artery (vertebral artery; 3 mg/kg, Table 1): 16.0
Total Increase in Blood Flow, Vertebral Artery (vertebral artery; 3 mg/kg, Table 1): 190 mL
Duration of Activity, Vertebral Artery (vertebral artery; [7]): 15
Total Increase in Blood Flow, Vertebral Artery (vertebral artery; [7]): 131 mL
Duration of Activity, Vertebral Artery (vertebral artery; 10 mg/kg, Table 2): 46
Total Increase in Blood Flow, Vertebral Artery (vertebral artery; 10 mg/kg, Table 2): 640 mL

SMILES: COC(=O)C1=C(C)NC(C)=C(C(=O)OCC2CC2)C1c1cccc([N+](=O)[O-])c1 (stereo not drawn) [Compound C, Cyclopropylmethyl methyl 2,6-dimethyl-4-(3-nitrophenyl)-1,4-dihydropyridine-3,5-dicarboxylate]
LD50 at 168 h (in vivo): 1450 mg/kg
Duration of Activity, Femoral Artery (femoral artery; [7]): 26
Total Increase in Blood Flow, Femoral Artery (femoral artery; [7]): 367 mL
Duration of Activity, Femoral Artery (femoral artery; 10 mg/kg, Table 2): 60
Total Increase in Blood Flow, Femoral Artery (femoral artery; 10 mg/kg, Table 2): 811 mL
duration of vasodilation effect compared with Compound F [5]: significantly higher
vasodilation effect compared with Compound F [5]: significantly higher
Change in appearance on light exposure ([6]; 5 min. sun light): (-)
Change in appearance on light exposure ([6]; 1 hour sun light): (-)
Change in appearance on light exposure ([6]; 2 hours sun light): (-)
Change in appearance on light exposure ([6]; 3 hours sun light): (-)
Change in appearance on light exposure ([6]; 8 hours sun light): (-)
changes on light exposure [6, 8]: did not show any changes
Duration of Activity, Coronary Artery (coronary artery; [7]): 49
Total Increase in Blood Flow, Coronary Artery (coronary artery; [7]): 580 mL
Duration of Activity, Coronary Artery (coronary artery; 10 mg/kg, Table 2): 66
Total Increase in Blood Flow, Coronary Artery (coronary artery; 10 mg/kg, Table 2): 2772 mL
Duration of Activity, Vertebral Artery (vertebral artery; [7]): 37
Total Increase in Blood Flow, Vertebral Artery (vertebral artery; [7]): 463 mL
Duration of Activity, Vertebral Artery (vertebral artery; 10 mg/kg, Table 2): 78
Total Increase in Blood Flow, Vertebral Artery (vertebral artery; 10 mg/kg, Table 2): 1691 mL

Change in appearance on light exposure ([6]; 5 min. sun light): (-)
Change in appearance on light exposure ([6]; 1 hour sun light): (-)
Change in appearance on light exposure ([6]; 2 hours sun light): (-)
Change in appearance on light exposure ([6]; 3 hours sun light): (-)
changes on light exposure [6, 8]: did not show any changes
SMILES: COC(=O)C1=C(C)NC(C)=C(C(=O)OCC2(C)OCCO2)C1c1cccc([N+](=O)[O-])c1 (stereo not drawn) [Compound A, Methyl 2,2-ethylenedioxypropyl 2,6-dimethyl-4-(3-nitrophenyl)-1,4-dihydropyridine-3,5-dicarboxylate]
Effects on Heart Systole: Duration of Effect ([1]; dose 1 × 10^-6 g): 4.6 min
Effects on Heart Systole: Duration of Effect ([1]; dose 1 × 10^-7 g): 1.3 min
Effects on Coronary Artery: Duration of Effect ([3]; dose 1 × 10^-6 g): 34.6 min
Effects on Coronary Artery: Total Perfusion Volume ([3]; dose 1 × 10^-6 g): 737.8 drops
Effects on Coronary Artery: Duration of Effect ([3]; dose 1 × 10^-7 g): 15.6 min
Effects on Coronary Artery: Total Perfusion Volume ([3]; dose 1 × 10^-7 g): 165.0 drops
Duration of Activity, Femoral Artery (femoral artery; 1 mg/kg, Table 1): 9.0
Total Increase in Blood Flow, Femoral Artery (femoral artery; 1 mg/kg, Table 1): 104 mL
Duration of Activity, Femoral Artery (femoral artery; 3 mg/kg, Table 1): 19.3
Total Increase in Blood Flow, Femoral Artery (femoral artery; 3 mg/kg, Table 1): 316 mL
Duration of Activity, Coronary Artery (coronary artery; 1 mg/kg, Table 1): 5.5
Total Increase in Blood Flow, Coronary Artery (coronary artery; 1 mg/kg, Table 1): 22 mL
Duration of Activity, Coronary Artery (coronary artery; 3 mg/kg, Table 1): 17.5
Total Increase in Blood Flow, Coronary Artery (coronary artery; 3 mg/kg, Table 1): 164 mL
Duration of Activity, Vertebral Artery (vertebral artery; 1 mg/kg, Table 1): 11.7
Total Increase in Blood Flow, Vertebral Artery (vertebral artery; 1 mg/kg, Table 1): 64 mL
Duration of Activity, Vertebral Artery (vertebral artery; 3 mg/kg, Table 1): 27.3
Total Increase in Blood Flow, Vertebral Artery (vertebral artery; 3 mg/kg, Table 1): 288 mL

SMILES: CCCOC(=O)C1=C(C)NC(C)=C(C(=O)OCC2CC2)C1c1cccc([N+](=O)[O-])c1 (stereo not drawn) [Compound E, Cyclopropylmethyl propyl 2,6-dimethyl-4-(3-nitrophenyl)-1,4-dihydropyridine-3,5-dicarboxylate]
LD50 at 168 h (in vivo): 2000 mg/kg
Duration of Activity, Femoral Artery (femoral artery; [7]): 20
Total Increase in Blood Flow, Femoral Artery (femoral artery; [7]): 285 mL
Change in appearance on light exposure ([6]; 5 min. sun light): (-)
Change in appearance on light exposure ([6]; 1 hour sun light): (-)
Change in appearance on light exposure ([6]; 2 hours sun light): (-)
Change in appearance on light exposure ([6]; 3 hours sun light): (-)
Change in appearance on light exposure ([6]; 8 hours sun light): (-)
changes on light exposure [6, 8]: did not show any changes
Duration of Activity, Coronary Artery (coronary artery; [7]): 22
Total Increase in Blood Flow, Coronary Artery (coronary artery; [7]): 148 mL
Duration of Activity, Vertebral Artery (vertebral artery; [7]): 19
Total Increase in Blood Flow, Vertebral Artery (vertebral artery; [7]): 262 mL

SMILES: CCOC(=O)C1=C(C)NC(C)=C(C(=O)OCC2CC2)C1c1cccc([N+](=O)[O-])c1 (stereo not drawn) [Compound D, Cyclopropylmethyl ethyl 2,6-dimethyl-4-(3-nitrophenyl)-1,4-dihydropyridine-3,5-dicarboxylate]
LD50 at 168 h (in vivo): 2000 mg/kg
Duration of Activity, Femoral Artery (femoral artery; [7]): 16
Total Increase in Blood Flow, Femoral Artery (femoral artery; [7]): 173 mL
Change in appearance on light exposure ([6]; 5 min. sun light): (-)
Change in appearance on light exposure ([6]; 1 hour sun light): (-)
Change in appearance on light exposure ([6]; 2 hours sun light): (-)
Change in appearance on light exposure ([6]; 3 hours sun light): (-)
Change in appearance on light exposure ([6]; 8 hours sun light): (-)
changes on light exposure [6, 8]: did not show any changes
Duration of Activity, Coronary Artery (coronary artery; [7]): 32
Total Increase in Blood Flow, Coronary Artery (coronary artery; [7]): 308 mL
Duration of Activity, Vertebral Artery (vertebral artery; [7]): 17
Total Increase in Blood Flow, Vertebral Artery (vertebral artery; [7]): 212 mL

SMILES: COC(=O)C1=C(C)NC(C)=C(C(=O)OCC(C)C)C1c1ccccc1[N+](=O)[O-] (stereo not drawn) [Compound F, Isobutyl methyl 2,6-dimethyl-4-(2-nitrophenyl)-1,4-dicarboxylate, reference compound]
LD50 at 168 h (in vivo): 465 mg/kg
Duration of Activity, Femoral Artery (femoral artery; [7]): 27
Total Increase in Blood Flow, Femoral Artery (femoral artery; [7]): 365 mL
Duration of Activity, Femoral Artery (femoral artery; 10 mg/kg, Table 2): 58
Total Increase in Blood Flow, Femoral Artery (femoral artery; 10 mg/kg, Table 2): 874 mL
color changes on light exposure ([6]; 5 minutes' exposure): slight color changes
changes on light exposure ([6]; after more than 5 minutes' exposure ("thereafter")): marked changes
Duration of Activity, Coronary Artery (coronary artery; [7]): 31
Total Increase in Blood Flow, Coronary Artery (coronary artery; [7]): 353 mL
Duration of Activity, Coronary Artery (coronary artery; 10 mg/kg, Table 2): 55
Total Increase in Blood Flow, Coronary Artery (coronary artery; 10 mg/kg, Table 2): 863 mL
Duration of Activity, Vertebral Artery (vertebral artery; [7]): 34
Total Increase in Blood Flow, Vertebral Artery (vertebral artery; [7]): 347 mL

SMILES: COC(=O)C1=C(C)NC(C)=C(C(=O)OCC(C)=O)C1c1ccccc1[N+](=O)[O-] (stereo not drawn) [Compound B, Methyl 2-oxopropyl 2,6-dimethyl-4-(2-nitrophenyl)-1,4-dihydropyridine-3,5-dicarboxylate]
Duration of Activity, Femoral Artery (femoral artery; 1 mg/kg, Table 1): 4.0
Total Increase in Blood Flow, Femoral Artery (femoral artery; 1 mg/kg, Table 1): 20 mL
Duration of Activity, Femoral Artery (femoral artery; 3 mg/kg, Table 1): 58.5
Total Increase in Blood Flow, Femoral Artery (femoral artery; 3 mg/kg, Table 1): 774 mL
Duration of Activity, Coronary Artery (coronary artery; 1 mg/kg, Table 1): 10.0
Total Increase in Blood Flow, Coronary Artery (coronary artery; 1 mg/kg, Table 1): 37 mL
Duration of Activity, Coronary Artery (coronary artery; 3 mg/kg, Table 1): 35.0
Total Increase in Blood Flow, Coronary Artery (coronary artery; 3 mg/kg, Table 1): 392 mL
Duration of Activity, Vertebral Artery (vertebral artery; 1 mg/kg, Table 1): 7.5
Total Increase in Blood Flow, Vertebral Artery (vertebral artery; 1 mg/kg, Table 1): 29 mL
Duration of Activity, Vertebral Artery (vertebral artery; 3 mg/kg, Table 1): 35.5
Total Increase in Blood Flow, Vertebral Artery (vertebral artery; 3 mg/kg, Table 1): 309 mL

SMILES: CCOC(=O)C1=C(C)NC(C)=C(C(=O)OC2CCCCC2)C1c1cccc([N+](=O)[O-])c1 (stereo not drawn) [cyclohexyl ethyl 2,6-dimethyl-4-(3-nitrophenyl)-1,4-dihydropyridine-3,5-dicarboxylate]
activities, reported ([4]; German OLS Nos. 2,117,571 and 2,117,573): weak activities
